Reference: PMC6630832, “3-Vinylazetidin-2-Ones: Synthesis, Antiproliferative and Tubulin Destabilizing Activity in MCF-7 and MDA-MB-231 Breast Cancer Cells” (Pharmaceuticals, 2019)
Like-named read-outs stand apart in the source and are kept apart here.

Assays:
Assay type in all cases: cell-based
[1] = test system: MCF-7 cells; experiment: Lactate dehydrogenase (LDH) assay for cytotoxicity; settings: Homo sapiens, MCF7, 72 h, read-out: cell death (LDH assay)
Method: Cytotoxicity was determined using the CytoTox 96 non-radioactive cytotoxicity assay (Promega Corporation; 2800 Woods Hollow Road, Madison, WI, USA) following the manufacturer’s protocol. Briefly, MCF-7 cells were seeded in 96-well plates, incubated for 24 hr and then treated with test compounds (7d, 7h, 7i, 7q, 7r, 7u, 7t, 10d, 10f, 12) as described in the cell viability assay above. After 72 h, 20 μL of ‘lysis solution (10X)’ was added to control wells and the plate was incubated for a further 1 hr to ensure 100% death. 50 μL of supernatant was carefully removed from each well and transferred to a new 96-well plate. 50 μL of reconstituted ‘substrate mix’ was added and the plate was placed in the dark at room temperature for 30 min. After this period, 50 μL of ‘stop solution’ was added to each well and the absorbance was read at a wavelength of 490 nm using a Dynatech MR5000 plate reader. The percentage cell death at 10 μM was calculated.

[2] = test system: HCT-2998; experiment: NCI60 screen (SRB), Colon Cancer
[3] = test system: HCT-15; experiment: NCI60 screen (SRB), Colon Cancer; settings: Homo sapiens
[4] = test system: HT29; experiment: NCI60 screen (SRB), Colon Cancer; settings: Homo sapiens, HT-29
[5] = test system: KM12; experiment: NCI60 screen (SRB), Colon Cancer; settings: Homo sapiens
[6] = test system: SNB-19; experiment: NCI60 screen (SRB), CNS Cancer; settings: Homo sapiens
[7] = test system: U251; experiment: NCI60 screen (SRB), CNS Cancer; settings: Homo sapiens, U-251
[8] = test system: PC-3; experiment: NCI60 screen (SRB), Prostate cancer; settings: Homo sapiens
[9] = test system: LOX IMVI; experiment: NCI60 screen (SRB), Melanoma; settings: Homo sapiens
[10] = test system: MALME-3M; experiment: NCI60 screen (SRB), Melanoma; settings: Homo sapiens
[11] = test system: SK-MEL-28; experiment: NCI60 screen (SRB), Melanoma; settings: Homo sapiens
[12] = test system: UACC-257; experiment: NCI60 screen (SRB), Melanoma; settings: Homo sapiens
[13] = test system: UACC-62; experiment: NCI60 screen (SRB), Melanoma; settings: Homo sapiens
[14] = test system: IGROV1; experiment: NCI60 screen (SRB), Ovarian cancer; settings: Homo sapiens, IGROV-1
[15] = test system: OVCAR-5; experiment: NCI60 screen (SRB), Ovarian cancer; settings: Homo sapiens
[16] = test system: 786-0; experiment: NCI60 screen (SRB), Renal cancer; settings: Homo sapiens
[17] = test system: A498; experiment: NCI60 screen (SRB), Renal cancer; settings: Homo sapiens
[18] = test system: SN12C; experiment: NCI60 screen (SRB), Renal cancer; settings: Homo sapiens
[19] = test system: MCF-7; experiment: NCI60 screen (SRB), Breast cancer; settings: Homo sapiens, MCF7
[20] = test system: BT-549; experiment: NCI60 screen (SRB), Breast cancer; settings: Homo sapiens
[21] = test system: T-47D; experiment: NCI60 screen (SRB), Breast cancer; settings: Homo sapiens, T47D
[22] = test system: MDA-MB-468; experiment: NCI60 screen (SRB), Breast cancer; settings: Homo sapiens
[23] = test system: CCRF-CEM; experiment: NCI60 screen (SRB), Leukemia; settings: Homo sapiens
[24] = test system: HL-60(TB); experiment: NCI60 screen (SRB), Leukemia; settings: Homo sapiens; NCI60 Leukemia cell line HL-60(TB)
[25] = test system: MOLT-4; experiment: NCI60 screen (SRB), Leukemia; settings: Homo sapiens
[26] = test system: OVCAR-8; experiment: NCI60 screen (SRB), Ovarian cancer; settings: Homo sapiens
[27] = NCI60 Colon Cancer cell line HCT-2998, read-out: GI50
[28] = NCI60 Colon Cancer cell line HCT-15, read-out: GI50
[29] = NCI60 Colon Cancer cell line HT29, read-out: GI50
[30] = NCI60 Colon Cancer cell line KM12, read-out: GI50
[31] = NCI60 CNS Cancer cell line SNB-19, read-out: GI50
[32] = NCI60 CNS Cancer cell line U251, read-out: GI50
[33] = NCI60 Prostate cancer cell line PC-3, read-out: GI50
[34] = NCI60 Melanoma cell line LOX IMVI, read-out: GI50
[35] = NCI60 Melanoma cell line MALME-3M, read-out: GI50
[36] = NCI60 Melanoma cell line SK-MEL-28, read-out: GI50
[37] = NCI60 Melanoma cell line UACC-257, read-out: GI50
[38] = NCI60 Melanoma cell line UACC-62, read-out: GI50
[39] = NCI60 Ovarian cancer cell line IGROV1, read-out: GI50
[40] = NCI60 Ovarian cancer cell line OVCAR-5, read-out: GI50
[41] = NCI60 Renal cancer cell line 786-0, read-out: GI50
[42] = NCI60 Renal cancer cell line A498, read-out: GI50
[43] = NCI60 Renal cancer cell line SN12C, read-out: GI50
[44] = NCI result in MCF-7 cells, read-out: GI50
[45] = NCI60 Breast cancer cell line BT-549, read-out: GI50
[46] = NCI60 Breast cancer cell line T-47D, read-out: GI50
[47] = NCI60 Breast cancer cell line MDA-MB-468, read-out: GI50
[48] = NCI60 Leukemia cell line CCRF-CEM, read-out: GI50
[49] = NCI60 Leukemia cell line MOLT-4, read-out: GI50
[50] = NCI60 Ovarian cancer cell line OVCAR-8, read-out: GI50

Compound: COc1ccc(/C=C\c2cc(OC)c(OC)c(OC)c2)cc1O [CA-4, Combretastatin A-4, reference compound]
- cytotoxicity at 10 µM [1]: 11.8%

Compound: C=CC1C(=O)N(c2cc(OC)c(OC)c(OC)c2)C1c1ccc(OC)cc1 (centres unmarked) [Compound 7h, 4-(4-Methoxyphenyl)-1-(3,4,5-trimethoxyphenyl)-3-vinylazetidin-2-one]
- cytotoxicity at 10 µM [1]: 2.4%
- GI50 [2]: 35.3 nM
- GI50 ([3]; HCT-15): 37.1 nM
- GI50 [4]: 33.7 nM
- GI50 ([5]; KM12): 35.1 nM
- GI50 ([6]; SNB-19): 54.2 nM
- GI50 [7]: 34.2 nM
- GI50 ([8]; PC-3): 37.4 nM
- GI50 ([9]; LOX IMVI): 41.6 nM
- GI50 ([10]; Malme-3M): 0.073 µM
- GI50 ([11]; SK-MEL-28): 59.9 nM
- GI50 ([12]; UACC-257): 42.2 µM
- GI50 ([13]; UACC-62): 50.2 nM
- GI50 [14]: 40.4 nM
- GI50 ([15]; OVCAR-5): 58.7 nM
- GI50 ([16]; 786-0): 33.9 nM
- GI50 ([17]; A498): 18.3 nM
- GI50 ([18]; SN12C): 55.2 nM
- GI50 [19]: 30.6 nM
- GI50 ([20]; BT-549): 32.5 nM
- GI50 [21]: 20.5 µM
- GI50 ([22]; MDA-MB-468): 22.7 nM

Compound: C=CC1C(=O)N(c2cc(OC)c(OC)c(OC)c2)C1c1ccc(OC)c(O)c1 (centres unmarked) [Compound 7s, 4-[3-Hydroxy-4-methoxyphenyl]-1-(3,4,5-trimethoxyphenyl)-3-vinylazetidin-2-one]
- cytotoxicity at 10 µM [1]: 16.1%
- GI50 [2, 27]: 36.4 nM
- GI50 [3, 28]: 18 nM
- GI50 [4, 29]: 429 nM
- GI50 [5, 30]: < 10 nM
- GI50 [6, 31]: 40.5 nM
- GI50 [7, 32]: 15.6 nM
- GI50 [8, 33]: < 10 nM
- GI50 [9, 34]: < 10 nM
- GI50 [10, 35]: 0.0283 µM
- GI50 [11, 36]: < 10 nM
- GI50 [12, 37]: > 100 µM
- GI50 [13, 38]: < 10 nM
- GI50 [14, 39]: < 10 nM
- GI50 [15, 40]: 45.3 nM
- GI50 [16, 41]: 27.3 nM
- GI50 [17, 42]: < 10 nM
- GI50 [18, 43]: < 10 nM
- GI50 [19, 44]: < 10 nM
- GI50 [20, 45]: < 10 nM
- GI50 [21, 46]: 0.0299 µM
- GI50 [22, 47]: < 10 nM

Compound: C=CC1C(=O)N(c2cc(OC)c(OC)c(OC)c2)C1c1ccc(OC)c(N)c1 (centres unmarked) [Compound 7t, 4-(3-Amino-4-methoxyphenyl)-1-(3,4,5-trimethoxyphenyl)-3-vinylazetidin-2-one]
- cytotoxicity at 10 µM [1]: 25%
- GI50 ([23]; CCRF-CEM): 32.6 nM
- GI50 [24]: 13.7 nM
- GI50 ([25]; MOLT-4): 40 nM
- GI50 [2]: 36.8 nM
- GI50 ([3]; HCT-15): 28.7 nM
- GI50 [4]: 17.9 nM
- GI50 ([5]; KM12): 24.2 nM
- GI50 ([6]; SNB-19): 49 nM
- GI50 [7]: 36.2 nM
- GI50 ([8]; PC-3): 41.5 nM
- GI50 ([9]; LOX IMVI): < 10 nM
- GI50 ([10]; Malme-3M): > 100 µM
- GI50 ([11]; SK-MEL-28): 18.1 nM
- GI50 ([12]; UACC-257): > 100 µM
- GI50 ([13]; UACC-62): 12300 nM
- GI50 [14]: 49.6 nM
- GI50 ([15]; OVCAR-5): 44.6 nM
- GI50 ([26]; OVCAR-8): 14.8 nM
- GI50 ([16]; 786-0): 34.6 nM
- GI50 ([17]; A498): 11 nM
- GI50 [19]: < 10 nM
- GI50 ([20]; BT-549): 25.9 nM
- GI50 ([22]; MDA-MB-468): < 10 nM

Compound: C=CC1C(=O)N(c2cc(OC)c(OC)c(OC)c2)C1c1ccc(OC)c(OP(=O)(O)O)c1 (centres unmarked) [Compound 17b, 2-Methoxy-5-(1-(3,4,5-trimethoxyphenyl)-4-oxo-3-vinylazetidin-2-yl)phenyl dihydrogen phosphate]
- GI50 [23, 48]: 60.4 nM
- GI50 [24]: 27.3 nM
- GI50 [25, 49]: 129 nM
- GI50 [2, 27]: 190 nM
- GI50 [3, 28]: 47.4 nM
- GI50 [4, 29]: 2780 nM
- GI50 [5, 30]: 39.1 nM
- GI50 [6, 31]: 459 nM
- GI50 [7, 32]: 34.3 nM
- GI50 [8, 33]: 53.6 nM
- GI50 [9, 34]: 42.2 nM
- GI50 [10, 35]: 54.5 µM
- GI50 [11, 36]: 97.7 nM
- GI50 [12, 37]: > 100 µM
- GI50 [13, 38]: 51.1 nM
- GI50 [14, 39]: 66.9 nM
- GI50 [15, 40]: 3570 nM
- GI50 [26, 50]: 44.2 nM
- GI50 [16, 41]: 229 nM
- GI50 [17, 42]: 21.8 nM
- GI50 [18, 43]: 146 nM
- GI50 [19, 44]: 39.4 nM
- GI50 [20, 45]: 115 nM
- GI50 [21, 46]: > 100 µM
- GI50 [22, 47]: 49.6 nM

Compound: CCC1C(=O)N(c2cc(OC)c(OC)c(OC)c2)C1c1ccc(OC)c(OP(=O)(O)O)c1 (centres unmarked) [Compound 17c, 5-(3-Ethyl-1-(3,4,5-trimethoxyphenyl)-4-oxoazetidin-2-yl)-2-methoxyphenyl dihydrogen phosphate]
- GI50 [23, 48]: 32.5 nM
- GI50 [24]: 28.8 nM
- GI50 [25, 49]: 47.7 nM
- GI50 [2, 27]: 40.9 nM
- GI50 [3, 28]: 29.6 nM
- GI50 [4, 29]: 356 nM
- GI50 [5, 30]: 22 nM
- GI50 [6, 31]: 63.9 nM
- GI50 [7, 32]: 31.3 nM
- GI50 [8, 33]: 34.9 nM
- GI50 [9, 34]: 24.1 nM
- GI50 [10, 35]: 71.4 µM
- GI50 [11, 36]: 7460 nM
- GI50 [12, 37]: > 100 µM
- GI50 [13, 38]: 34.8 nM
- GI50 [14, 39]: 37.6 nM
- GI50 [15, 40]: 444 nM
- GI50 [26, 50]: 32.7 nM
- GI50 [16, 41]: 44.5 nM
- GI50 [17, 42]: 12.9 nM
- GI50 [18, 43]: 54.8 nM
- GI50 [19, 44]: 25.1 nM
- GI50 [20, 45]: 33.8 nM
- GI50 [21, 46]: > 100 µM
- GI50 [22, 47]: 27.6 nM
